ChEMBL document CHEMBL1201862, “PubChem BioAssay data set” (2004)
Each block holds one molecule with its values, some of them ahead of it. Active and inactive are the calls of the source.

Legend:
[1] = target: Glycogen synthase kinase-3 beta (Homo sapiens, UniProt P49841); assay type: functional;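 further: value comes from a broad kinome profiling panel, with GSK3B as the panel member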
[2] = target: Homeodomain-interacting protein kinase 2 (Homo sapiens, UniProt Q9H2X6); assay type: functional;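 further: measured within a kinome-wide kinase profiling panel, HIPK2 being one panel member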
[3] = target: Serine/threonine-protein kinase pim-1 (Homo sapiens, UniProt P11309); assay type: functional
Sequence of Serine/threonine-protein kinase pim-1 (P11309 whole entry): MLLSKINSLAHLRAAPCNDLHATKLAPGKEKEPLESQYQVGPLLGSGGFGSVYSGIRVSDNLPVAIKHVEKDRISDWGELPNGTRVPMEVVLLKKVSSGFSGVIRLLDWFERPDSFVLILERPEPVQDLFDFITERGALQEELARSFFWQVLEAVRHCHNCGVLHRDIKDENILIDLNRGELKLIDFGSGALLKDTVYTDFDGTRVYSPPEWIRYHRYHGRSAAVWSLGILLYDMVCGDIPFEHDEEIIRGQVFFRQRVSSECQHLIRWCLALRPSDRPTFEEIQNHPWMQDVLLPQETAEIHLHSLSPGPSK

[4] = target: cAMP-dependent protein kinase catalytic subunit alpha (Homo sapiens, UniProt P17612); assay type: functional
[5] = target: T1, Interleukin-1 receptor-associated kinase 4 (Homo sapiens, UniProt Q9NWZ3); assay type: functional
T1 sequence (Q9NWZ3 whole entry): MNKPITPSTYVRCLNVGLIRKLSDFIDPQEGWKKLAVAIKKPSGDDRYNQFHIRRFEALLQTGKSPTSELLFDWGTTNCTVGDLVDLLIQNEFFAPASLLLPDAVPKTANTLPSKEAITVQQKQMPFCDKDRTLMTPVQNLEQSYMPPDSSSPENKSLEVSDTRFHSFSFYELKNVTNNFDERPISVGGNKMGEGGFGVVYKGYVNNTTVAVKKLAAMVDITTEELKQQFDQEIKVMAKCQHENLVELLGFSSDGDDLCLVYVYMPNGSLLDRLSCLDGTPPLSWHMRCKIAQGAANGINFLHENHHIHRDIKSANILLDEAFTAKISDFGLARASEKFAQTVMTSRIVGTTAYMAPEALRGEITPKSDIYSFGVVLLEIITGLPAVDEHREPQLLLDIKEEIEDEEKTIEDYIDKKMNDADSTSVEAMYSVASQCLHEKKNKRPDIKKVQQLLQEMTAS

[6] = target: Cell division cycle 7-related protein kinase (Homo sapiens, UniProt O00311); assay type: functional;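 further: value obtained from a kinome-wide kinase panel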
[7] = target: Mitogen-activated protein kinase kinase kinase kinase 4 (Homo sapiens, UniProt O95819); assay type: functional
[8] = target: Protein disulfide-isomerase (Homo sapiens, UniProt P07237); assay: PDI inhibitors, insulin aggregation turbidity, dose response, biochemical, absorbance, cherry-picked samples (AID 602350); assay type: functional
[9] = target: Tyrosine-protein kinase ABL1 (Homo sapiens, UniProt P00519); assay type: functional
[10] = target: Mast/stem cell growth factor receptor Kit (Homo sapiens, UniProt P10721); assay type: functional;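 further: KIT entry within a kinase panel assay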
[11] = target: High affinity nerve growth factor receptor (Homo sapiens, UniProt P04629); assay type: functional;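 further: NTRK1 tested as one member of a kinome-wide profiling panel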
[12] = target: Vascular endothelial growth factor receptor 1 (Homo sapiens, UniProt P17948); assay type: functional;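 further: measured within a kinome-wide profiling panel, FLT1 as the panel member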
Sequence of Vascular endothelial growth factor receptor 1 (P17948 whole entry): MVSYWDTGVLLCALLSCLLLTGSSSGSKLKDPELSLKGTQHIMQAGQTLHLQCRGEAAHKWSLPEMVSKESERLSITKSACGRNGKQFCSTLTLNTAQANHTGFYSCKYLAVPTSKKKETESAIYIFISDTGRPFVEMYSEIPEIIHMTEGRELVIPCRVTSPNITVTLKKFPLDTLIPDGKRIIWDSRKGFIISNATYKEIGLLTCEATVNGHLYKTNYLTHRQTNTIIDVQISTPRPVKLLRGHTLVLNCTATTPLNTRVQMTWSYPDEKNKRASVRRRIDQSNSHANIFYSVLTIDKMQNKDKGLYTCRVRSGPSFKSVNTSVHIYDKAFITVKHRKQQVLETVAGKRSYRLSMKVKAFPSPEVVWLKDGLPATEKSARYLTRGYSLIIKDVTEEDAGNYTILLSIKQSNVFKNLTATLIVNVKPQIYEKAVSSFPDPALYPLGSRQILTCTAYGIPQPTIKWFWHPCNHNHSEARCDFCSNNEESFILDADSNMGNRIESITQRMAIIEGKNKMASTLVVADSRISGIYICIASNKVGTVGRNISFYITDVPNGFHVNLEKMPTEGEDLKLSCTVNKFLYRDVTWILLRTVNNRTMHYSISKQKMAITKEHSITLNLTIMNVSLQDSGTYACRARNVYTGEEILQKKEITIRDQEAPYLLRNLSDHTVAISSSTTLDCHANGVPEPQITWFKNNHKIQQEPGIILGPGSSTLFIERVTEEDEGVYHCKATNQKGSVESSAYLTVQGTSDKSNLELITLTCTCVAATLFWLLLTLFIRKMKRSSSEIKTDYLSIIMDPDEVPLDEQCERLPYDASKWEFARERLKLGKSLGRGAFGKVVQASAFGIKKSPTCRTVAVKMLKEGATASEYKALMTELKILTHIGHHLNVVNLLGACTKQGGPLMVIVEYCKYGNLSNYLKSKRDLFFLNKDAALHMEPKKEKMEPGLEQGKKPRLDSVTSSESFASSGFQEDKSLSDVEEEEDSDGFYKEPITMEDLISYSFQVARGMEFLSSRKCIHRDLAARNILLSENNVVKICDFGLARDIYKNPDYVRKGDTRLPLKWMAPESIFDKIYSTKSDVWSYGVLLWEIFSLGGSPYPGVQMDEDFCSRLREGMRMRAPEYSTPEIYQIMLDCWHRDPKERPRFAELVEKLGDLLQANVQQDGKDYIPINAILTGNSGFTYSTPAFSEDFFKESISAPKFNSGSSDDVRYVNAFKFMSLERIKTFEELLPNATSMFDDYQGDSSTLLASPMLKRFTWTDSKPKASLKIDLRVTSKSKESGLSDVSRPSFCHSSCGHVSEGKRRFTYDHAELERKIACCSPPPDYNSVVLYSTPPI

[13] = target: Tyrosine-protein kinase Lyn (Homo sapiens, UniProt P07948); assay type: functional;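 further: lyn as one member of a kinase panel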
Sequence of Tyrosine-protein kinase Lyn (P07948 whole entry): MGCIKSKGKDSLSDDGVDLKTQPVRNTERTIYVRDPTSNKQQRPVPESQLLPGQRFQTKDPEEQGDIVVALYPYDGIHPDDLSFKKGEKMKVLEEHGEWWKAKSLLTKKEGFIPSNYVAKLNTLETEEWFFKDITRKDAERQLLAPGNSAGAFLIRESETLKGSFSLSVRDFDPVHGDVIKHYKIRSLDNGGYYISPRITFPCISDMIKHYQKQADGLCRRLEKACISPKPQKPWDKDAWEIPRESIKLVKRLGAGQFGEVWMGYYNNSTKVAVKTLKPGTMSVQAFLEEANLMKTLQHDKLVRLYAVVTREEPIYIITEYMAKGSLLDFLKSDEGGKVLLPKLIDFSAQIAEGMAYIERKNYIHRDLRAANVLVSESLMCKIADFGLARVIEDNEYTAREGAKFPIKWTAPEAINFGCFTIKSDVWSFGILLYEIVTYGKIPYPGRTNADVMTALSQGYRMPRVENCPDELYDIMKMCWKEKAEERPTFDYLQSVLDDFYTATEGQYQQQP

[14] = target: Tyrosine-protein kinase Blk (Homo sapiens, UniProt P51451); assay type: functional;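 further: obtained as one member of a kinome-wide kinase assay panel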
[15] = target: Tyrosine-protein kinase Lck (Homo sapiens, UniProt P06239); assay type: functional;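 further: lck was assayed as one member of a kinase panel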
Sequence of Tyrosine-protein kinase Lck (P06239 whole entry): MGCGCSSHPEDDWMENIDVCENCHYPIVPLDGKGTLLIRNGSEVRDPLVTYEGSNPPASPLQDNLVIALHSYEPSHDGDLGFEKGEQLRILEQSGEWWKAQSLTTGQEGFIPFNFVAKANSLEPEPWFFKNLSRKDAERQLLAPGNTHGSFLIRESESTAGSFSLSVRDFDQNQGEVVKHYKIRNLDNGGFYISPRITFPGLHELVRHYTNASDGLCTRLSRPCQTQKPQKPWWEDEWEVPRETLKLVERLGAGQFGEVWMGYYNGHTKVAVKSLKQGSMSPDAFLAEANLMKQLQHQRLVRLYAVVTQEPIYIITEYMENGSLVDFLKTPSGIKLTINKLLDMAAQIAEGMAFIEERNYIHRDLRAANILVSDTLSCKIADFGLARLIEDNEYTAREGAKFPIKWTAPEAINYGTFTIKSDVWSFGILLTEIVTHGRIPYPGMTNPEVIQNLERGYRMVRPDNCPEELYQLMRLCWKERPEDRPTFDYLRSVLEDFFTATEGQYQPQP

[16] = target: Vascular endothelial growth factor receptor 2 (Homo sapiens, UniProt P35968); assay type: functional
[17] = target: Proto-oncogene tyrosine-protein kinase Src (Homo sapiens, UniProt P12931); assay type: functional;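 further: SRC entry within a kinome-wide kinase profiling panel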
[18] = target: T2, Receptor-type tyrosine-protein kinase FLT3 (Homo sapiens, UniProt P36888); assay type: functional;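 further: FLT3 was tested as one member of a kinome-wide kinase panel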
T2 sequence (P36888 whole entry): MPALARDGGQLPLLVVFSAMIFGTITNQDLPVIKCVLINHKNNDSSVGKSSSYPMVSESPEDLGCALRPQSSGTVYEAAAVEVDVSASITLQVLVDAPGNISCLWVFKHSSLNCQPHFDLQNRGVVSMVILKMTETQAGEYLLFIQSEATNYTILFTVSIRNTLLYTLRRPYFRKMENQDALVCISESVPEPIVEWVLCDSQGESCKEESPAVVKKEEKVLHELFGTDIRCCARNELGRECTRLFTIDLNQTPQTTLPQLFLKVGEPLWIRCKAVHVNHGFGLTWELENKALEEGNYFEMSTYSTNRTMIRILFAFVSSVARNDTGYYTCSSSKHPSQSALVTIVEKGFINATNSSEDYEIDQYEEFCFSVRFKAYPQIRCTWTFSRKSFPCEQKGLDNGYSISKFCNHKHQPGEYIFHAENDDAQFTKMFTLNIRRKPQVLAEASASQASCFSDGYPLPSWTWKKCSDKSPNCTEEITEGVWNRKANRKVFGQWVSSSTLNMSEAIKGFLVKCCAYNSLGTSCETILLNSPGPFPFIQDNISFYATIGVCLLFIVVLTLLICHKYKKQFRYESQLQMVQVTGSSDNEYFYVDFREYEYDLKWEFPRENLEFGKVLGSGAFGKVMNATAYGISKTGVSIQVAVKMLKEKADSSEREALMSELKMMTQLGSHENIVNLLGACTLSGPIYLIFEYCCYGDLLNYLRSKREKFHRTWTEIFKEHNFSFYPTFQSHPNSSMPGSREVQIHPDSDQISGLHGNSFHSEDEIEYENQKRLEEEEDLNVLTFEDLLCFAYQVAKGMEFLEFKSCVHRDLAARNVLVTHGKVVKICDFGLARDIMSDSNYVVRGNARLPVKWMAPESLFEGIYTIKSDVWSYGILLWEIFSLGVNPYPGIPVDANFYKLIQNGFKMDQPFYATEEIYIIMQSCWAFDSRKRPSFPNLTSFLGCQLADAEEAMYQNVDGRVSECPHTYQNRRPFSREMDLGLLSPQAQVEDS

[19] = target: Macrophage colony-stimulating factor 1 receptor (Homo sapiens, UniProt P07333); assay type: functional;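 further: value comes from the Navigating the Kinome screening panel, CSF1R member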
[20] = target: Tyrosine-protein kinase Fyn (Homo sapiens, UniProt P06241); assay type: functional
Sequence of Tyrosine-protein kinase Fyn (P06241 whole entry): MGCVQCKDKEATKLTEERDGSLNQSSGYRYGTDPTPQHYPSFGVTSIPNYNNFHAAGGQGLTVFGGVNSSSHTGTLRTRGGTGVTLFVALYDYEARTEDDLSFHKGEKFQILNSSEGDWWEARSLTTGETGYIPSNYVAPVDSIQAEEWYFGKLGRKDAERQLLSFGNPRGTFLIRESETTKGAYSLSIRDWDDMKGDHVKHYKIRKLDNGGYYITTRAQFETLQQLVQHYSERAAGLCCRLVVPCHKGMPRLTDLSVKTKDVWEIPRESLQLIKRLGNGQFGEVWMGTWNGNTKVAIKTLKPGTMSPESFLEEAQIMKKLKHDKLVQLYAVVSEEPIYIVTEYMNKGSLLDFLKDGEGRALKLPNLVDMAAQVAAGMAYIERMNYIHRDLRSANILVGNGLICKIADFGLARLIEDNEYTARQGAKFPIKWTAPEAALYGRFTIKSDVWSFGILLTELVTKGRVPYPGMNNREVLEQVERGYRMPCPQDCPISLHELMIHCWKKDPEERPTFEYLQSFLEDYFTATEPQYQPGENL

[21] = target: Vascular endothelial growth factor receptor 3 (Homo sapiens, UniProt P35916); assay type: functional;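 further: value from a kinome-wide profiling panel, with FLT4 as the panel member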
[22] = target: T3, DNA dC->dU-editing enzyme APOBEC-3A (Homo sapiens, UniProt P31941); assay: SAR analysis of small molecule inhibitors of APOBEC3A DNA Deaminase via a fluorescence-based single-stranded DNA deaminase assay.; assay type: functional; conditions: read-out: IC50_Mean
[23] = target: T4, DNA dC->dU-editing enzyme APOBEC-3G (Homo sapiens, UniProt Q9HC16); assay: APOBEC3G deaminase inhibitors, SAR follow-up, biochemical, fluorescence, single-stranded DNA substrate (AID 602136); assay type: functional; conditions: read-out: IC50_Mean
T4 sequence (Q9HC16 whole entry): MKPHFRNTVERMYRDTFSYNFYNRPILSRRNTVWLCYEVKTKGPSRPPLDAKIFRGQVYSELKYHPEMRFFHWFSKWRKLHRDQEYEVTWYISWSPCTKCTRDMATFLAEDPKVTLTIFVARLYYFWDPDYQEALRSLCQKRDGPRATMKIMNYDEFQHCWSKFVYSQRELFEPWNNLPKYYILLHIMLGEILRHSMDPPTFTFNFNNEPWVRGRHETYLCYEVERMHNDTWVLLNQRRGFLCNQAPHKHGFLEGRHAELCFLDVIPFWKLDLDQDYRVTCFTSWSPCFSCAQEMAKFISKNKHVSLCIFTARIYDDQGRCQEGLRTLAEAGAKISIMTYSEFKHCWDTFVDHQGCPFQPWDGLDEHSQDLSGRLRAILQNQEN

[24] = target: T3, DNA dC->dU-editing enzyme APOBEC-3A; assay: SAR analysis of small molecule inhibitors of APOBEC3A DNA Deaminase via a fluorescence-based single-stranded DNA deaminase assay - Set 2.; assay type: functional; conditions: read-out: IC50_Mean
[25] = target: T4, DNA dC->dU-editing enzyme APOBEC-3G; assay: SAR analysis of small molecule inhibitors of APOBEC3G DNA Deaminase via a fluorescence-based single-stranded DNA deaminase assay - Set 2.; assay type: functional; conditions: read-out: IC50_Mean
[26] = target: Dual specificity protein kinase CLK4 (Homo sapiens, UniProt Q9HAZ1); assay type: functional
[27] = inhibitors of intracellular T. cruzi replication, confirmation, NIH3T3 host cells, beta-gal luminescence (AID 2044); assay type: functional, cell-based;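 further: intracellular parasites grown in NIH/3T3 mouse fibroblasts as host cells; luminescent beta-galactosidase reporter signal from transgenic T. cruzi replicating inside host cells; inhibitors lower the luminescence signal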
[28] = system: HEK293; assay: HEK cell cytotoxicity by LDH release, dose response, cytotoxicity control for IDE activator project, fluorescence, HEK cells (AID 588440); assay type: functional, cell-based; conditions: Homo sapiens;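 further: cytotoxicity by LDH release measuring loss of membrane integrity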
[29] = target: T5, Insulin-degrading enzyme (Homo sapiens, UniProt P14735); assay: activators of endogenous IDE in HEK cells, dose response, cell-based, fluorescence polarization (AID 588439); assay type: functional
T5 sequence (P14735 whole entry): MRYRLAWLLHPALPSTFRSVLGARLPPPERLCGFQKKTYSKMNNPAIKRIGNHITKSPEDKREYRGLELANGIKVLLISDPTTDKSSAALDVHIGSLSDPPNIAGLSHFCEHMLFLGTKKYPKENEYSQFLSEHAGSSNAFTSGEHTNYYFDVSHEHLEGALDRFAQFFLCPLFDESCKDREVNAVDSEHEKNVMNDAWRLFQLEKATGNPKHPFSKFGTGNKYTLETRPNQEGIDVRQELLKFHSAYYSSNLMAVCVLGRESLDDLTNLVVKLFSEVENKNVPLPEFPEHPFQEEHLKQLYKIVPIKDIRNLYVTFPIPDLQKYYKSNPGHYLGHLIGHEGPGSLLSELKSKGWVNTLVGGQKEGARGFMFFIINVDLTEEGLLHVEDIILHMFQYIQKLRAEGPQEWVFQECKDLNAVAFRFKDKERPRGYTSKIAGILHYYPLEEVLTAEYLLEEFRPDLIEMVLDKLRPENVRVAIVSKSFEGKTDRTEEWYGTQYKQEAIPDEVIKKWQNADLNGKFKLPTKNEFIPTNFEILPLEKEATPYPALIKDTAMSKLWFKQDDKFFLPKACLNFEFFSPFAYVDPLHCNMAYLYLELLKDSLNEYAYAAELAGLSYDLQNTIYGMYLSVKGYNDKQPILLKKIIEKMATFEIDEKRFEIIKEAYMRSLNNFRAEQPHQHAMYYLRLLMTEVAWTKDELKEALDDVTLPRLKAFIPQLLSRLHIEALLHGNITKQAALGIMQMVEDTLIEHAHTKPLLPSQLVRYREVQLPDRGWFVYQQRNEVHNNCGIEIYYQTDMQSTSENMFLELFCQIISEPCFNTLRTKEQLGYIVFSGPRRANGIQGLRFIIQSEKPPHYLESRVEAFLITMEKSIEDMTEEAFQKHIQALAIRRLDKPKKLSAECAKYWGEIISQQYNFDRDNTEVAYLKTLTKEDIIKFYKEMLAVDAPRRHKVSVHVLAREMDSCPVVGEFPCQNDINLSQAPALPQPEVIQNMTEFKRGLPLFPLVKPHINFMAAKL

[30] = system: HEK293; assay: optical interference in Abeta FP readout, dose response, artefact control for IDE activator project, biochemical, fluorescence polarization (AID 588442); assay type: functional, cell-based; conditions: Homo sapiens
[31] = cytotoxicity toward NIH3T3 fibroblasts, dose response, counter-screen, cell-based, ATP luminescence, mouse fibroblasts (AID 2010); assay type: functional;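 further: cells exposed to compound for about 90 hours before reading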
[32] = target: T5, Insulin-degrading enzyme; assay: activators of recombinant IDE enzyme, dose response, counter-screen for IDE activator project, biochemical, fluorescence polarization (AID 588681)
[33] = target: Eukaryotic translation initiation factor 4E (Mus musculus, UniProt P63073); assay: eIF4E–eIF4G protein interaction inhibitors, dose response, biochemical, TR-FRET (AID 855); assay type: functional;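 further: potency for disrupting eIF4E binding to eIF4GI seen as loss of FRET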
[34] = target: Prothrombin (Bos taurus, UniProt P00735); assay: thrombin inhibition, dose response, biochemical, fluorescence polarization, uHTS hits (AID 602369); assay type: functional
[35] = target: T6, SUMO-activating enzyme (Homo sapiens, UniProt Q9UBT2); assay: SUMOylation inhibitor hit validation, confirmation, SUMOylation inhibitor project, biochemical, AlphaScreen (AID 2018); assay type: functional
T6 sequence (Q9UBE0 whole entry): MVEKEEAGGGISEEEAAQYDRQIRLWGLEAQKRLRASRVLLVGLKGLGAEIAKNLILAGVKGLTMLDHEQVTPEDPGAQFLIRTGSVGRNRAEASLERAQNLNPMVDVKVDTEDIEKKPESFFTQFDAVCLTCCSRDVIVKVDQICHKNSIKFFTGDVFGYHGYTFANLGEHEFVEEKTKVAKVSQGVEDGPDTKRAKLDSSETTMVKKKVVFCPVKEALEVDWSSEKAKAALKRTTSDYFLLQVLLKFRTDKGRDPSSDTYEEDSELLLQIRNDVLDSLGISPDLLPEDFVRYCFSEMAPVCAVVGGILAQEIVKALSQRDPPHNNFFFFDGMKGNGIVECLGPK
T6 sequence (Q9UBT2 whole entry): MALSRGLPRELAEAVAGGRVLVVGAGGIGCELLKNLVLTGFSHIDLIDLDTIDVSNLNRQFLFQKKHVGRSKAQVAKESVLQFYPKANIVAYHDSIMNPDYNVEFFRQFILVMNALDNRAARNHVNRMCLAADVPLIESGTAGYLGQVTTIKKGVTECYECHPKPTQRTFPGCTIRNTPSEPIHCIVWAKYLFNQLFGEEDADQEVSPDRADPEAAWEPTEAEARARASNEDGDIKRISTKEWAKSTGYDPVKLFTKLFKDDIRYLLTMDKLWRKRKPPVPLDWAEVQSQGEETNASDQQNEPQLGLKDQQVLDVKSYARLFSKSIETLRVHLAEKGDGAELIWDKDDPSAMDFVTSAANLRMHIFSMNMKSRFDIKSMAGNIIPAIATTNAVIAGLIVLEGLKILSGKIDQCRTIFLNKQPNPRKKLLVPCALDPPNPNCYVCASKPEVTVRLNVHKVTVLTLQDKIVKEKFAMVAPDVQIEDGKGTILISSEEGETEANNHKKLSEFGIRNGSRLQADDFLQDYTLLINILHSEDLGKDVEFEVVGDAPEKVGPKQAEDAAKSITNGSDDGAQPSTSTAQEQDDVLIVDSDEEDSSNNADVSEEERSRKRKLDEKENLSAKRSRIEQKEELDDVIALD

[36] = target: 72 kDa type IV collagenase (Homo sapiens, UniProt P08253); assay: Dose Response validation of uHTS RPN11 inhibitor hits using a MMP-2 Fluorescence assay.; assay type: functional
[37] = target: T6, SUMO-activating enzyme; assay: inhibitors of in vitro SUMOylation cascade, primary screen, biochemical, HTRF, uHTS (AID 2006); assay type: protein-complex assay
[38] = target: 26S proteasome non-ATPase regulatory subunit 14 (Homo sapiens, UniProt O00487); assay: inhibition of proteasome subunit RPN11 – biochemical, fluorescence polarization, uHTS hits, confirmation (AID 602368); assay type: functional
[39] = cytotoxicity in HEK-293T cells, dose response, cytotoxicity control for BCR NF-kB inhibitor project, luminescence, B-cell screen hits (AID 489021); assay type: functional, cell-based;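 further: HEK-293T cells carrying an NF-kB luciferase reporter; cells exposed to compound for about 14 hours before viability readout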

Sequence of Glycogen synthase kinase-3 beta (P49841 whole entry): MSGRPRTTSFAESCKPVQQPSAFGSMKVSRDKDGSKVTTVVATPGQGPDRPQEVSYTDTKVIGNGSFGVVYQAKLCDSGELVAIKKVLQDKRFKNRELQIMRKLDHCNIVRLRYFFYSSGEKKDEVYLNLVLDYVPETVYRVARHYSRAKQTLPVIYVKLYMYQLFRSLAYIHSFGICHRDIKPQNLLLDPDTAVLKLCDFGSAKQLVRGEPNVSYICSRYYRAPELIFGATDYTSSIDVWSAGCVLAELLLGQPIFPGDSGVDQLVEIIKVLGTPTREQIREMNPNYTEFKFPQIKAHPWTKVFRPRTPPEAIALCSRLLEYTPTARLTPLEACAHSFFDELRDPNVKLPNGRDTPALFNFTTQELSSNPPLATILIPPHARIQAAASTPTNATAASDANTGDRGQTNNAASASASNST

Ki [1]: 0.2 µM (active)
Ki [2]: 0.0794 µM (active)
Ki [3]: 1.58 µM (active)
Ki [4]: 0.158 µM (active)
Ki [5]: 1.26 µM (active)
Ki [6]: 0.00251 µM (active)
Ki [7]: 0.00398 µM (active)
SMILES: OCCNc1cc(-c2c[nH]c3ncccc23)cc(Cl)n1

AC50 [8]: 19.5 µM (active)
SMILES: NNC(=O)c1cc(-c2ccc(O)cc2)nc2ccc(Br)cc12

Ki [9]: 0.501 µM (active)
pKi [9]: 6.3
Ki [10]: 0.000794 µM (active)
pKi [10]: 9.1
Ki [11]: 1.26 µM (active)
pKi [11]: 5.9
Ki [12]: 0.000631 µM (active)
pKi [12]: 9.2
Ki [13]: 0.158 µM (active)
pKi [13]: 6.8
Ki [14]: 0.2 µM (active)
pKi [14]: 6.7
Ki [15]: 0.1 µM (active)
pKi [15]: 7
Ki [16]: 0.00316 µM (active)
pKi [16]: 8.5
Ki [17]: 0.501 µM (active)
Ki [18]: 0.001 µM (active)
pKi [18]: 9
Ki [19]: 0.002 µM (active)
pKi [19]: 8.7
Ki [20]: 0.398 µM (active)
pKi [20]: 6.4
Ki [21]: 0.00316 µM (active)
pKi [21]: 8.5
SMILES: Nc1n[nH]c2cccc(-c3ccc(NC(=O)Nc4cccc(Cl)c4)c(F)c3)c12

SMILES: CCCc1nnc2c3c4c(sc3ncn12)CCCC4
IC50 [22]: > 99 µM (inactive)
IC50 [23]: > 99 µM (inactive)

SMILES: Cc1c(-c2ccnc3cc(C(=O)O)nn23)cnn1C
IC50 [24]: 88.9 µM (inactive)
IC50 [25]: > 99 µM (inactive)

Ki [1]: 0.00251 µM (active)
Ki [2]: 0.02 µM (active)
Ki [26]: 0.00501 µM (active)
Ki [3]: 0.0251 µM (active)
Ki [4]: 3.98 µM (active)
Ki [5]: 6.31 µM (active)
Ki [6]: 0.00501 µM (active)
Ki [7]: 0.1 µM (active)
SMILES: O=C(NCc1ccccc1)c1c[nH]n2c(=O)cc(-c3ccncc3)nc12

SMILES: CCN1CCN(CCNC(=O)c2ccc(/C=C3/Sc4ccccc4N(Cc4cccc(Cl)c4)C3=O)cc2)CC1
EC50 [27]: 1.41 µM (active)
IC50 [28]: 19.5 µM (inactive)
EC50 [29]: > 54.7 µM (inactive)
EC50 [30]: > 55.9 µM (inactive)
EC50 [31]: 8.47 µM (active)
EC50 [32]: 53.4 µM (inactive)
IC50 [33]: 50 µM (inactive)

SMILES: CCc1ccc(/C=C2/SC(=S)N(CCC(=O)Nc3ccc(C(=O)O)cc3)C2=O)cc1
IC50 [34]: 51.7 µM (active)
IC50 [35]: 4.15 µM (active)
IC50 [36]: > 100 µM (inactive)
IC50 [37]: 14.1 µM (active)
IC50 [38]: 18.1 µM (active)
IC50 [39]: > 80 µM (inactive)
